Source: PubChem BioAssay (NCI)
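Where inhibition never reached the appropriate level, the endpoint shown equals the highest concentration tested. Otherwise, values were interpolated linearly from a five-concentration, 48-hour dose response in 96-well plates. Abbreviation: GI50, concentration required for 50% inhibition of growth. The concentration for full growth arrest is given as TGI.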

How the values were obtained:
Assay in all cases: NCI anticancer screen, dose series, 48 h
[1] = tested on: SNB-19 CNS
[2] = tested on: LOX IMVI melanoma
[3] = tested on: KM12 colon
[4] = tested on: RXF 393 renal
[5] = tested on: NCI-H23 lung
[6] = tested on: OVCAR-8 ovarian
[7] = tested on: EKVX NSCLC
[8] = tested on: NCI-H226 lung
[9] = tested on: NCI-H522 lung
[10] = tested on: SK-MEL-28 melanoma
[11] = tested on: PC-3 prostate
[12] = tested on: SK-MEL-2 melanoma
[13] = tested on: MALME-3M melanoma
[14] = tested on: MCF7 breast
[15] = tested on: NCI-H460 lung
[16] = tested on: T-47D breast
[17] = tested on: HT29 colon
[18] = tested on: OVCAR-4 ovarian
[19] = tested on: MDA-MB-231 breast
[20] = tested on: COLO 205 colon
[21] = tested on: NCI/ADR-RES ovarian
[22] = tested on: TK-10 renal
[23] = tested on: HCT-116 colon
[24] = tested on: ACHN renal
[25] = tested on: RPMI-8226 leukemia
[26] = tested on: HOP-62 NSCLC
[27] = tested on: SN12C renal
[28] = tested on: HS 578T breast
[29] = tested on: MDA-MB-468 breast
[30] = tested on: M14 melanoma
[31] = tested on: SR leukemia
[32] = tested on: SK-OV-3 ovarian
[33] = tested on: UO-31 renal
[34] = tested on: SF-539 CNS
[35] = tested on: K-562 leukemia
[36] = tested on: UACC-62 melanoma
[37] = tested on: 786-0 renal
[38] = tested on: CAKI-1 renal
[39] = tested on: A549 NSCLC
[40] = tested on: UACC-257 melanoma
[41] = tested on: A498 renal
[42] = tested on: HL-60(TB) leukemia
[43] = tested on: SF-268 CNS
[44] = tested on: MOLT-4 leukemia
[45] = tested on: SF-295 CNS
[46] = tested on: BT-549 breast
[47] = tested on: OVCAR-5 ovarian
[48] = tested on: U251 CNS
[49] = tested on: CCRF-CEM leukemia
[50] = tested on: HCT-15 colon
[51] = tested on: IGROV1 ovarian
[52] = tested on: OVCAR-3 ovarian
[53] = tested on: HOP-92 NSCLC
[54] = tested on: SW-620 colon
[55] = tested on: MDA-MB-435
[56] = tested on: DU-145 prostate
[57] = tested on: SK-MEL-5 melanoma
[58] = tested on: HCC-2998 colon

## COc1ccc(C(=O)/C=C/c2ccccc2Br)cc1S(N)(=O)=O
[1]
  GI50: 4.26 µM
  TGI: 16 µM
[2]
  GI50: 1.65 µM
  TGI: 3.02 µM
[3]
  GI50: 1.87 µM
  TGI: 4.01 µM
[4]
  GI50: 1.91 µM
  TGI: 4.38 µM
[5]
  GI50: 3.22 µM
  TGI: 12.7 µM
[6]
  GI50: 2.62 µM
  TGI: 8.33 µM
[7]
  GI50: 9.86 µM
  TGI: 21.8 µM
[8]
  GI50: 2.47 µM
  TGI: 6.96 µM
[9]
  GI50: 1.77 µM
  TGI: 4.12 µM
[10]
  GI50: 8.3 µM
  TGI: 20.5 µM
[11]
  GI50: 4.28 µM
  TGI: 16.9 µM
[12]
  GI50: 14.4 µM
  TGI: 28.1 µM
[13]
  GI50: 10.8 µM
  TGI: 22.7 µM
[14]
  GI50: 2.89 µM
  TGI: 11.3 µM
[15]
  GI50: 1.94 µM
  TGI: 4.58 µM
[16]
  GI50: 3.57 µM
  TGI: 15.8 µM
[17]
  GI50: 2.27 µM
  TGI: 4.9 µM
[18]
  GI50: 3.25 µM
  TGI: 13.1 µM
[19]
  GI50: 2.09 µM
  TGI: 4.69 µM
[20]
  GI50: 2.21 µM
  TGI: 4.49 µM
[21]
  GI50: 2.28 µM
  TGI: 5.67 µM
[22]
  GI50: 3.29 µM
  TGI: 11.9 µM
[23]
  GI50: 1.52 µM
  TGI: 3.02 µM
[24]
  GI50: 1.84 µM
  TGI: 3.56 µM
[25]
  GI50: 2.3 µM
  TGI: 6.84 µM
[26]
  GI50: 2.41 µM
  TGI: 7.39 µM
[27]
  GI50: 1.86 µM
  TGI: 4.15 µM
[28]
  GI50: 8.91 µM
  TGI: 72 µM
[29]
  GI50: 2.56 µM
  TGI: 13.2 µM
[30]
  GI50: 6.83 µM
  TGI: 21.3 µM
[31]
  GI50: 1.48 µM
  TGI: 4.43 µM
[32]
  GI50: 12.9 µM
  TGI: 26 µM
[33]
  GI50: 1.53 µM
  TGI: 3.05 µM
[34]
  GI50: 1.74 µM
  TGI: 3.21 µM
[35]
  GI50: 1.85 µM
  TGI: 5.09 µM
[36]
  GI50: 3.64 µM
  TGI: 15.3 µM
[37]
  GI50: 1.81 µM
  TGI: 3.66 µM
[38]
  GI50: 4.24 µM
  TGI: 16.2 µM
[39]
  GI50: 2.67 µM
  TGI: 8.9 µM
[40]
  GI50: 11.9 µM
  TGI: 24.5 µM
[41]
  GI50: 11.4 µM
  TGI: 24.1 µM
[42]
  GI50: 2.64 µM
  TGI: 17.2 µM
[43]
  GI50: 3.66 µM
  TGI: 14.6 µM
[44]
  GI50: 1.93 µM
  TGI: 5 µM
[45]
  GI50: 4.13 µM
  TGI: 16.1 µM
[46]
  GI50: 4.56 µM
  TGI: 16.8 µM
[47]
  GI50: 2.2 µM
  TGI: 5.99 µM
[48]
  GI50: 1.49 µM
  TGI: 2.82 µM
[49]
  GI50: 3.07 µM
  TGI: 11.1 µM
[50]
  GI50: 1.65 µM
  TGI: 3.45 µM
[51]
  GI50: 2.76 µM
  TGI: 10 µM
[52]
  GI50: 2.09 µM
  TGI: 4.73 µM
[53]
  GI50: 3.29 µM
  TGI: 16 µM
[54]
  GI50: 1.79 µM
  TGI: 4.04 µM
[55]
  GI50: 7.18 µM
  TGI: 20.1 µM
[56]
  GI50: 3.35 µM
  TGI: 11.4 µM
[57]
  GI50: 7.78 µM
  TGI: 20.5 µM
[58]
  GI50: 2.9 µM
  TGI: 12.4 µM
